# Measured values from patent publication US20090143293A1, “Peptide inhibitors of protein kinase C gamma for pain management” (priority 2002, published 2009).
# “Also recorded” adds a separate entry of the source. Like-named read-outs stand apart in the source and are kept apart here.
# Experiments:
# [1] = system: capsaicin-induced nociception; assay: Capsaicin-induced nociception, paw withdrawal latency (Example 2); type: in vivo, rat (adult male Sprague-Dawley); conditions: 10 μM Tat-conjugated peptide intrathecal 15 min before 3% capsaicin, FIG. 3; for response to nociception (paw withdrawal latency): low rate heating
# Description: Example 2 describes another study in support of the invention, where a γPKC V5 domain peptide (SEQ ID NO:4) was used for pain management in the capsaicin pain model. As a positive, comparative control, a V1 εPKC peptide (SEQ ID NO:6) was used. The peptides were conjugated to a Tat carrier peptide (SEQ ID NO:7) and were administered intrathecally to test animals prior to application of capsaicin to a paw. […] minutes after capsaicin application, paw withdrawal latency was measured at regular intervals for 75 minutes. The results are shown in FIG. 3, for Tat-derived γPCK (closed squares), Tat-derived-εPCK (open squares), the Tat carrier peptide alone (open triangles), and for animals treated with saline (open circles).
# Adult male Sprague-Dawley rats weighing between 200-250 g were lightly anaesthetized with urethane (800 mg/kg, i.p.). The dorsal surface of each animal was painted with India ink to ensure heat was applied evenly to the dorsal surface. Baseline measurements of all animals (n=10/test group) were taken for 45 minutes for both C-fibers (0.9° C./sec heating rate) and Aδ-fibers (6.5° C./sec heating rate). The test V5 peptide was derived from the V5 region of γPKC (SEQ ID NO:4) and was conjugated to a Tat-carrier peptide (SEQ ID NO:7). As a positive comparative control, a peptide from the V1 domain of εPKC (SEQ ID NO:6) was also conjugated to a Tat-carrier peptide (SEQ ID NO:7). The peptides were delivered intrathecally via direct lumbar puncture (10 μM peptide in 20 μL saline) 15 minutes prior to topical application of capsaicin to the left hind paw (100 μL of 3% capsaicin). Saline and the Tat-carrier peptide alone (SEQ ID NO:7) were also administered to two separate groups of control animals. A latency measurement was taken post peptide but prior to capsaicin application to control for direct peptide effect. Twenty minutes after the application of capsaicin, the ink was re-applied, and the dorsal surface of the hind paws was subjected to low rate heating for a maximum of 20 seconds. Foot withdrawal latencies were measured at 15 minute intervals.
# [2] = system: formalin-induced spontaneous pain behaviors; assay: Dose response study in the formalin-induced pain model, rats at postnatal days 7, 15, 21; type: in vivo, rat
# Excerpt: In postnatal day 21 and older rats, intraplantar formalin produces a stereotypic biphasic behavioral pattern. Phase 1 is characterized by intense shaking, lifting and licking of the offending hindpaw produced by activation of peripheral nociceptors. Activation of descending inhibitory pathways follows, reducing spontaneous pain behaviors (quiescent phase). Quiescence is followed by a second phase, characterized by a revival of pain behaviors, and at least partially mediated by central mechanisms.
# A dose response study on rats at postnatal days 7, 15, and 21 using the γPCK V5 peptide identified herein by SEQ ID NO:4. In this study, the average pain scores as a function of time were determined, as described above, using the formalin-induced pain model. The peptide was administered at dosages of 2 μM, 10 μM and 20 μM fifteen minutes […] formalin injection. The results are shown in FIGS. 4A-4C for rats at postnatal day 7 (FIG. 4A), postnatal day 15 (FIG. 4B) and postnatal day 21 (FIG. 4C), where the 2 μM γPKC dose is represented by inverted triangles, the 10 μM dose of γPKC is represented by diamonds, and the 20 μM γPKC dose by circles. The control groups received 10 μM of the Tat carrier peptide and are represented by triangles.
# [3] = system: formalin-induced spontaneous pain behaviors; assay: Formalin-induced nociception in rat pups, peptide given before formalin (Example 1); type: in vivo, rat (Sprague-Dawley pups)
# Description: In the study detailed in Example 1, the peptide identified herein as SEQ ID NO:4 was administered to rat pups on postnatal days 7, 15, and 21. The peptide was administered 15 minutes prior to intraplantar formalin injection. Following formalin injection, spontaneous pain behaviors were recorded every two minutes for one hour. In this study, an εPKC antagonist peptide from the V1 domain was used as a positive, comparative control. As noted above, the εV1-2 peptide, EVASLKPT (SEQ ID NO:6) has been described, for example, in U.S. Pat. No. 5,783,405 and by Dorn et al. (PNAS, […]:12798 (1999)).
# Both the εV1-2 peptide and the γPKC peptide V5-3 (SEQ ID NO:4) were conjugated via terminal cysteine residues to a carrier peptide, Tat (SEQ ID NO:7), for administration. One group of animals was treated with the Tat carrier peptide alone as a control. Another group of animals received only saline as a control.
# The results are shown in FIGS. 2A-2C, where average pain scores for rat pups treated with γPKC (closed squares), εPCK (open squares), the Tat carrier peptide alone (open triangles), or saline (open circles) are shown as a function of time, in minutes. The average pain score was determined by a time sampling method, where the animal's behavior was recorded every two minutes. A score of “1” was given if the animal was licking, shaking, or elevating the formalin-treated paw. The three pain scores over a six minute period of observation were summed into a single score, to give a maximum possible score of 3 for each animal for each six minute interval. The average pain score was determined from the individual scores of the animals in each treatment group. FIG. 2A corresponds to the average pain scores for 7 day old rat pups, where 1% formalin was administered to the paw 15 minutes post delivery of the peptide or control substance.
# Rat pups (male and female, Sprague-Dawley) were randomly divided at selected days after birth (postnatal days 7, 15, and 21) into groups for treatments. Each group received a PKC V5-domain test peptide, a positive, comparative control peptide, a carrier peptide control, or a saline control. The V5-domain test peptide was a γPKC peptide identified herein as SEQ ID NO:4 and as the comparative control peptide was a V1 domain εPKC peptide identified herein as SEQ ID NO:6. Peptides were reversibly conjugated to a Tat-peptide carrier (SEQ ID NO:7) via a cysteine-cysteine bond at their N termini. The peptides were administered via direct lumbar puncture (intrathecal administration) at the indicated dose, typically a dose of 20 μM PKC peptide in 5 μL (7 day old pups) or 10 μL (15 and 21 day old pups) saline.
# Fifteen minutes after administration of the peptides or the control substance, 1% formalin (7 day old pups) or 2.5% formalin (15 and 21 day old pups) was delivered intradermally to the paw. Spontaneous pain behaviors were recorded every two minutes for one hour following formalin injection. The time sampling method for behavioral observation was employed, in which the observer rapidly recorded the behavior of the animals every two minutes (Teng et al., Pain, 76:337 (1998). A score of “1” was given if the animal was licking, shaking, or elevating the hindpaw. A six minute period of observation provided a maximum pain score of “3” for each animal.
# [4] = system: allodynia and/or hyperalgesia; conditions: formalin model; cited from earlier work
# [5] = system: pain; conditions: reported in WO 00/01415; listed as εV1-2 peptide; cited from earlier work
# [6] = biological target: T1, εPKC (Homo sapiens, UniProt Q02156); conditions: reported in the literature; listed as εV1-2 peptide; cited from earlier work
# T1 sequence (Q02156 1-737): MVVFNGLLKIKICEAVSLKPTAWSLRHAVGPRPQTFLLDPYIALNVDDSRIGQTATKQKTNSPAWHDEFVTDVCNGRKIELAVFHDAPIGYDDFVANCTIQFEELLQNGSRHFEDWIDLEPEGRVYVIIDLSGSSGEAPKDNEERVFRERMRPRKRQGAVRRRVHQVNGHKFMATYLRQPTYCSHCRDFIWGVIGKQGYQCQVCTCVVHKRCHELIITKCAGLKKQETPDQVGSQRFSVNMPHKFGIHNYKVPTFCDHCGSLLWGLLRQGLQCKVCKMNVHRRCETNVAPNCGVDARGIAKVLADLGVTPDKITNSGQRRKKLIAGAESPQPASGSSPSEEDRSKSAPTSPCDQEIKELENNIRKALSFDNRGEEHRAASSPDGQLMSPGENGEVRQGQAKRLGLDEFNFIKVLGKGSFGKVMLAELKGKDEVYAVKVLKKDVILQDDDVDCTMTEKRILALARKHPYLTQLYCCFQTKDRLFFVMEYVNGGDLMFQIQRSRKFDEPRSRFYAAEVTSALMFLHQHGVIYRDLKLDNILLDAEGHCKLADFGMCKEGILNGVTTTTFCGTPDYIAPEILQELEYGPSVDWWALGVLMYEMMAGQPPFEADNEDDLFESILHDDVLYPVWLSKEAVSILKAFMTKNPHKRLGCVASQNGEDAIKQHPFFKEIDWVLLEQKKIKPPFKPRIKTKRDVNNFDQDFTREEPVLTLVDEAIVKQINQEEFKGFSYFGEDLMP
# [7] = system: allodynia and/or hyperalgesia; conditions: capsaicin model; cited from earlier work
# [8] = system: allodynia and/or hyperalgesia; conditions: neuropathy model; cited from earlier work
# [9] = 2, 10, 20 μM, postnatal days 7, 15, 21, FIGS. 4A-4C
# [10] = 7 day old rat pups, 1% formalin to paw 15 min after intrathecal Tat-conjugated peptide, FIG. 2A
# [11] = 15 day old rat pups, 2.5% formalin 15 min after intrathecal Tat-conjugated peptide, FIG. 2B
# [12] = 21 day old rat pups, 2.5% formalin 15 min after intrathecal Tat-conjugated peptide, FIG. 2C
molecule,measurement,setting,value
"RLVLAS (peptide derived from the V5 domain of the gamma isozyme of PKC) [SEQ ID NO:4, peptide derived from the V5 domain of the γ isozyme of PKC]",response to nociception (paw withdrawal latency),[1],"induced an analgesic effect, producing an increase of threshold in the initial time point"
same,response to nociception (paw withdrawal latency),[1]; listed as γPKC V5 domain peptide,effective to modulate the response to nociception
same,phase 1 of formalin-induced spontaneous pain behaviors,[2]; [9],but not phase 1
same,phase 2 of formalin-induced spontaneous pain behaviors,[2]; [9],attenuated phase 2
same,attenuation of phase 2 behaviors,"[2]; 7 day old rats, highest dose (20 μM)",mild anti-nociception
same,duration of phase 2 behaviors,[2]; 15 day old rats,shortened the duration of phase 2 behaviors
same,duration of phase 2 behaviors,[2]; 21 day old rats,shortened the duration of phase 2 behaviors
same,attenuation of phase 2 behaviors,"[2]; 21 day old rats, all three doses (2, 10, 20 μM)",more robust anti-nociception
same,average pain score relative to control pups,[3]; [10],effective to lessen pain
same,average pain score relative to control pups,[3]; [11],effective to alleviate pain
same,average pain score relative to control pups,[3]; [12],provided a reduction in pain
same,duration of formalin-induced pain,[3]; summary of FIGS. 2A-2C,effectively shortened the duration
same,formalin-induced spontaneous pain behaviors,"[3]; summary of FIGS. 2A-2C, postnatal days 7, 15, 21",attenuated formalin-induced spontaneous pain behaviors
COc1ccc2c(c[n+](C)c3c4cc5c(cc4ccc23)OCO5)c1OC [chelerythrine],allodynia and/or hyperalgesia induced by the inflammatory agents,[4],reversal of the allodynia and/or hyperalgesia
"EVASLKPT [SEQ ID NO:6, peptide derived from the V1 domain of εPKC, positive comparative control, reference compound]",pain,[5],reported to lessen pain; also recorded: ameliorate pain
same,selective inhibition of εPKC,[6],selective inhibitor of εPKC; also recorded: selectively inhibit PCKε action
same,reducing the paw withdrawal latency,[1],about 50%
same,response to nociception (paw withdrawal latency),[1],anti-hyperalgesic
same,average pain score relative to control pups,[3]; [10],provided a greater attenuation of formalin-induced nociception
same,average pain score relative to control pups,[3]; [11],contribute to nociception relief
same,average pain score relative to control pups,[3]; [12],contribute to nociception relief
CCCCCCCCCCCCC(=O)N1CCCCC1CNC(=O)C(N)CCCCN (centres unmarked) [NPC15437],allodynia and/or hyperalgesia induced by the inflammatory agents,[7],reversal of the allodynia and/or hyperalgesia
calphostin,allodynia and/or hyperalgesia induced by the inflammatory agents,[8],reversal of the allodynia and/or hyperalgesia
